Source: patent US20110124523A1, “High Throughput Method for Detecting Apoptosis of Embryonic Stages of Metazoan Helminthic Parasites” (INSTITUTE OF LIFE SCIENCES, priority 2009, published 2011)
Values joined by “and” are separate entries in the source; they are usually repeats but may differ in a detail not shown here. Equal entries are not always repeated.

What was measured:
[1] = tested on: embryonic stages of S. digitata; assay: Intra cellular expression of CED-9 protein, flow cytometry; format: cell-based, Setaria digitata; conditions: 24 hr
Procedure: Adult female filarial worms Setaria digitata were collected from the peritoneum of cattle, slaughtered at a nearby abattoir in sterile Hanks Balanced Salt Solution (HBSS) medium (Sigma H 2387-1L) and transported to the laboratory in a sterile container. The medium containing 1% glucose (Sigma G 7528), Penicillin 100 units/ml, Streptomycin 100 μg/ml (Sigma P 4333). And Amphotericin-B 0.25 μg/ml (Sigma A 2942) was buffered with NaHCO3 (Sigma S 5761). About 5 to 7 worms were taken in a petridish, washed three times in medium, dissected into small pieces in 10 ml of medium under sterile conditions and incubated at 37° C. for 30 minutes to allow the release of embryonic stages (eggs and microfilariae) into the medium. The embryonic stages were harvested into sterile 15 ml. centrifuge tubes and washed three times by centrifuging at 300 g for 10 minutes each with medium and the final pellet was suspended in 1 ml. of RPMI-1640 medium (Sigma R 8005) supplemented with 10% FBS (Sigma F 2442) The number of embryonic stages of S. digitata in the above preparation were counted using light microscope, and the suspension was taken in RPMI-1640 medium containing 10% FBS at 1×10^5 embryonic stages/ml. One ml. each was dispensed into individual wells of a 24 well tissue culture plate. One set of wells was taken as untreated control containing only medium with 10% FBS. […] Motility of the Mf was scored under an inverted microscope. After appropriate treatment and incubation, each set of the cultured embryonic stages of S. digitata were harvested from the 24 well tissue culture plate separately in 15 ml. sterile centrifuge tubes, washed with PBS twice and stained as per requirement following manufacturer's instructions as described below. This was followed by two times washing with PBS and final suspension of the stained embryonic stages was taken in 0.5 ml of sheath fluid (BD Biosciences 342003) before their acquisition in the flow cytometer (BD FACS Calibur, Becten and Dickinson, USA). Analysis was performed on 10,000-acquired events depicted as Dot Plots and Histogram Plots using Cellquest Pro soft ware. All plots were representative of at least 3 experiments. The distinctly clustered populations obtained consistently in the Dot plots for the intra uterine embryonic stages of S. digitata (FIG. 1 a) were gated for Mfs (R-1) and eggs (R-2 and R-3) and analyzed for different assays for apoptosis as described below. After in vitro culture for 24 hours with apoptosis inducing reagents the embryonic stages were harvested in 15 ml. sterile centrifuge tubes and fixed for 60 minutes at 0° C. in 1% paraformaldehyde (Sigma P 6148) in PBS. The suspension was washed first with PBS and then with 1× permeabilisation buffer (eBioscience 00-8333-56) and finally resuspended in 100 μl of 1× permeabilisation buffer at 1×10^5 embryonic stages per ml. The intracellular expression of CED-9 was scored by incubation of the fixed and permeabilised embryonic stages with primary goat antibodies—anti CED-9 (Santacruz sc-9202) followed by probing with PE conjugated secondary anti goat IgG-PE (Santacruz sc-3747) antibodies. Incubation of both primary and secondary antibodies (both 1/100 diluted) was done successively in 1× permeabilisation buffer (e Bioscience 00-8333-56) for 1 hr and 45 minutes respectively. The suspension of stained embryonic stages was then washed with PBS twice and finally reading was taken by flow cytometry or confocal microscopy.

[2] = tested on: embryonic stages of S. digitata; assay: Mitochondrial depolarization, mitoscreen JC-1 staining; format: cell-based, Setaria digitata; conditions: for GMI (Geometric Mean Intensity) of Fluorescence, Mitoscreen-jc-1 staining (Mitochondrial Depolarisation assay): 24 hr, depolarisation = reduction in GMI; for induction of mitochondrial depolarization (result in words): Mfs and eggs, mitoscreen JC-1 staining
Procedure: Adult female filarial worms Setaria digitata were collected from the peritoneum of cattle, slaughtered at a nearby abattoir in sterile Hanks Balanced Salt Solution (HBSS) medium (Sigma H 2387-1L) and transported to the laboratory in a sterile container. The medium containing 1% glucose (Sigma G 7528), Penicillin 100 units/ml, Streptomycin 100 μg/ml (Sigma P 4333). And Amphotericin-B 0.25 μg/ml (Sigma A 2942) was buffered with NaHCO3 (Sigma S 5761). About 5 to 7 worms were taken in a petridish, washed three times in medium, dissected into small pieces in 10 ml of medium under sterile conditions and incubated at 37° C. for 30 minutes to allow the release of embryonic stages (eggs and microfilariae) into the medium. The embryonic stages were harvested into sterile 15 ml. centrifuge tubes and washed three times by centrifuging at 300 g for 10 minutes each with medium and the final pellet was suspended in 1 ml. of RPMI-1640 medium (Sigma R 8005) supplemented with 10% FBS (Sigma F 2442)
The number of embryonic stages of S. digitata in the above preparation were counted using light microscope, and the suspension was taken in RPMI-1640 medium containing 10% FBS at 1×10^5 embryonic stages/ml. One ml. each was dispensed into individual wells of a 24 well tissue culture plate. One set of wells was taken as untreated control containing only medium with 10% FBS. […] Motility of the Mf was scored under an inverted microscope.
After appropriate treatment and incubation, each set of the cultured embryonic stages of S. digitata were harvested from the 24 well tissue culture plate separately in 15 ml. sterile centrifuge tubes, washed with PBS twice and stained as per requirement following manufacturer's instructions as described below. This was followed by two times washing with PBS and final suspension of the stained embryonic stages was taken in 0.5 ml of sheath fluid (BD Biosciences 342003) before their acquisition in the flow cytometer (BD FACS Calibur, Becten and Dickinson, USA). Analysis was performed on 10,000-acquired events depicted as Dot Plots and Histogram Plots using Cellquest Pro soft ware. All plots were representative of at least 3 experiments. The distinctly clustered populations obtained consistently in the Dot plots for the intra uterine embryonic stages of S. digitata (FIG. 1 a) were gated for Mfs (R-1) and eggs (R-2 and R-3) and analyzed for different assays for apoptosis as described below.
The mitochondrial membrane potential (ΔΨm) was measured using JC-1 probe (a cataionic lipophilic fluorochrome that accumulates in mitochondria in proportion to mitochondrial membrane potential) supplied in mitoscreen JC-1 kit (BD Biosciences 551302). Briefly a suspension of in-vitro cultured embryonic stages at 1×10^5 embryonic stages/ml. was mixed with 0.5 ml of freshly prepared JC-1 working solution for 10-15 minutes at 37° C. in a CO2 incubator followed by two times washing and final suspension of the embryonic stages in 1× assay buffer (supplied with the kit) before acquisition and analysis by flow cytometry. Reduction of fluorescence intensity of the mitoscreen JC-1 stained embryonic stages was taken as the degree of depolarization of mitochondria.

**Q.** For `OO` [H2O2], which “GMI (Geometric Mean Intensity) of Fluorescence, CED-9 Expression” value (“GMI … CED-9 Expression” below) ([1]; Eggs, 10 μM) is on record?
**A.** The value was 115.67 and 123.32 and 113.26.

**Q.** What about the “GMI … CED-9 Expression” value ([1]; Microfilariae, 10 μM) of the same compound?
**A.** The value was 15.66 and 17.26 and 16.13.

**Q.** And the “GMI (Geometric Mean Intensity) of Fluorescence, Mitoscreen-jc-1 staining (Mitochondrial Depolarisation assay)” value (“GMI … (Mitochondrial Depolarisation assay)” for short) ([2]; Eggs, 10 μM)?
**A.** The value was 1225.16 and 1165.12 and 1295.39.

**Q.** And the “induction of mitochondrial depolarization (result in words)” value [2]?
**A.** Its value is “dose dependent induction of mitochondrial depolarization was observed”.

**Q.** What about the “GMI … (Mitochondrial Depolarisation assay)” value ([2]; Microfilariae, 10 μM) of the same compound?
**A.** Its value is 785.33 and 823.57 and 750.62.

**Q.** For `CC1=CC(=O)c2c(O)cccc2C1=O` [Plumbagin], which “GMI … CED-9 Expression” value ([1]; Eggs, 10 μM) is on record?
**A.** Its value is 206.36 and 202.92 and 205.16.

**Q.** And the “GMI … CED-9 Expression” value ([1]; Microfilariae, 10 μM)?
**A.** The value was 30.96 and 33.25 and 32.27.

**Q.** What about the “GMI … (Mitochondrial Depolarisation assay)” value ([2]; Eggs, 10 μM) of the same compound?
**A.** The value was 970.16 and 1078.76 and 897.56.

**Q.** And the “induction of mitochondrial depolarization (result in words)” value [2]?
**A.** The value was “dose dependent induction of mitochondrial depolarization was observed”.

**Q.** What about the “GMI … (Mitochondrial Depolarisation assay)” value ([2]; Microfilariae, 10 μM) of the same compound?
**A.** Its value is 435.26 and 476.20 and 398.76.

**Q.** Which “GMI … CED-9 Expression” value ([1]; Eggs, 1 μM) does the source give for `CN[C@@H]1C[C@H]2O[C@@](C)([C@@H]1OC)n1c3ccccc3c3c4c(c5c6ccccc6n2c5c31)C(=O)NC4` [Staurosporine] here?
**A.** Its value is 106.36 and 109.16 and 107.34.

**Q.** What about the “GMI … CED-9 Expression” value ([1]; Microfilariae, 1 μM) of the same compound?
**A.** The value was 10.32 and 9.56 and 11.02.

**Q.** And the “GMI … (Mitochondrial Depolarisation assay)” value ([2]; Eggs, 1 μM)?
**A.** The value was 1549.35 and 1500.65 and 1510.50.

**Q.** And the “GMI … (Mitochondrial Depolarisation assay)” value ([2]; Microfilariae, 1 μM)?
**A.** The value was 895.30 and 979.20 and 930.16.
